Results from ChEMBL document CHEMBL1137493, “Synthesis and potent antitumor activity of new arylamino derivatives of nor-beta-lapachone and nor-alpha-lapachone” (Bioorg Med Chem, 2007).
≈ marks a conversion by molar mass, not a printed value.

What was measured:
HL-60 = assay: Cytotoxicity against human HL60 cells after 72 hrs by MTT assay; type: functional, cell-based; settings: HL-60, 72 h
MDA-MB-435 = assay: Cytotoxicity against human MDA-MB-435 cells after 72 hrs by MTT assay; type: functional, cell-based; settings: MDA-MB-435, 72 h
SF-295 = assay: Cytotoxicity against human SF295 cells after 72 hrs by MTT assay; type: functional, cell-based; settings: SF-295, 72 h
HCT-8 = assay: Cytotoxicity against human HCT8 cells after 72 hrs by MTT assay; type: functional, cell-based; settings: HCT-8, 72 h
[1] = Toxicity assessed as hemolytic activity against mouse erythrocyte; type: cell-based; settings: mouse erythrocytes
PC-3 = assay: Cytotoxicity against human PC3 cells after 72 hrs by MTT assay; type: cell-based; settings: PC-3, 72 h
B16 = assay: Cytotoxicity against mouse B16 cells after 72 hrs by MTT assay; type: functional, cell-based; settings: B16, 72 h
L929 = assay: Cytotoxicity against mouse L929 cells after 72 hrs by MTT assay; type: cell-based; settings: L929, 72 h

Row | SMILES | IC50 (HL-60) [mg/L] | IC50 (MDA-MB-435) [mg/L] | IC50 (SF-295) [mg/L] | IC50 (HCT-8) [mg/L] | EC50 [1] [mg/L] | IC50 (PC-3) [mg/L] | IC50 (B16) [mg/L] | IC50 (L929) [mg/L]
1 | CC1(C)CCC2=C(O1)c1ccccc1C(=O)C2=O [LAPACHONE] | 0.4 (≈ 1.65 µM) | 0.06 (≈ 0.248 µM) | 0.22 (≈ 0.908 µM) | 0.2 (≈ 0.826 µM) | > 200 | – | – | –
2 | CC1(C)CC2=C(O1)c1ccccc1C(=O)C2=O [NOR-BETA-LAPACHONE] | 0.4 (≈ 1.75 µM) | 0.07 (≈ 0.307 µM) | 0.36 (≈ 1.58 µM) | 0.31 (≈ 1.36 µM) | > 200 | – | – | –
3 | CC1(C)OC2=C(C(=O)C(=O)c3ccccc32)C1Nc1cccc(Cl)c1 (stereo not given) | 0.39 (≈ 1.1 µM) | 0.17 (≈ 0.48 µM) | 0.36 (≈ 1.02 µM) | 0.51 (≈ 1.44 µM) | > 200 | 0.49 (≈ 1.38 µM) | 0.56 (≈ 1.58 µM) | 1.16 (≈ 3.28 µM)
4 | COc1cccc2c1C(=O)c1c(O)c3c(c(O)c1C2=O)C[C@@](O)(C(=O)CO)C[C@@H]3O[C@H]1C[C@H](N)[C@H](O)[C@H](C)O1 [DOXORUBICIN] | – | – | 0.25 (≈ 0.46 µM) | 0.04 (≈ 0.0736 µM) | – | 0.24 (≈ 0.442 µM) | 0.03 (≈ 0.0552 µM) | –
5 | Cc1ccc(C)c(NC2C3=C(OC2(C)C)c2ccccc2C(=O)C3=O)c1 (stereo not given) | 1.27 (≈ 3.66 µM) | 0.27 (≈ 0.777 µM) | 2.08 (≈ 5.99 µM) | 1.59 (≈ 4.58 µM) | > 200 | 0.32 (≈ 0.921 µM) | 3.03 (≈ 8.72 µM) | > 5
6 | CC1(C)OC2=C(C(=O)C(=O)c3ccccc32)C1Nc1cccc(Br)c1 (stereo not given) | 0.5 (≈ 1.26 µM) | 0.2 (≈ 0.502 µM) | 0.93 (≈ 2.34 µM) | 0.7 (≈ 1.76 µM) | > 200 | 0.46 (≈ 1.16 µM) | 0.48 (≈ 1.21 µM) | 1.02 (≈ 2.56 µM)
7 | CC1(C)OC2=C(C(=O)c3ccccc3C2=O)C1Nc1ccccc1 (stereo not given) | 2.99 (≈ 9.36 µM) | 0.89 (≈ 2.79 µM) | 2.52 (≈ 7.89 µM) | 1.43 (≈ 4.48 µM) | > 200 | 1.34 (≈ 4.2 µM) | 1 (≈ 3.13 µM) | 3.08 (≈ 9.64 µM)
8 | CC1(C)OC2=C(C(=O)C(=O)c3ccccc32)C1Nc1ccc(F)cc1 (stereo not given) | 0.32 (≈ 0.949 µM) | 0.12 (≈ 0.356 µM) | 0.59 (≈ 1.75 µM) | 0.51 (≈ 1.51 µM) | > 200 | 0.31 (≈ 0.919 µM) | 0.42 (≈ 1.24 µM) | 0.52 (≈ 1.54 µM)
9 | CC1(C)OC2=C(C(=O)C(=O)c3ccccc32)C1Nc1cccc([N+](=O)[O-])c1 (stereo not given) | 0.33 (≈ 0.906 µM) | 0.23 (≈ 0.631 µM) | 0.5 (≈ 1.37 µM) | 0.64 (≈ 1.76 µM) | > 200 | 0.41 (≈ 1.13 µM) | 0.43 (≈ 1.18 µM) | 0.42 (≈ 1.15 µM)
10 | CC1(C)OC2=C(C(=O)C(=O)c3ccccc32)C1Nc1ccccc1 (stereo not given) | 0.66 (≈ 2.07 µM) | 0.3 (≈ 0.939 µM) | 0.89 (≈ 2.79 µM) | 0.99 (≈ 3.1 µM) | > 200 | 0.31 (≈ 0.971 µM) | 0.74 (≈ 2.32 µM) | 2.72 (≈ 8.52 µM)
